Laboratory results: US20080214506A1, “Novel use of ion channel active compound, meperidine, to mediate process of accelerated wound healing” (priority 2002, published 2008)

Tested on: surgical wound
Test: meperidine subcutaneous infiltration as local anesthetic in exodontia and oral surgery, clinical observation over five years
Conditions: for blood loss per case: used as the local anesthetic
Source text: Normal healing after surgical and third molar procedures can result in painful sequelae up to 14 days after surgery, which frequently require after-hour intervention by the surgeon. Among these sequelae are localized osteotitis (dry socket), trismus, facial edema, and protracted bleeding. For the purposes of this invention, the definition of “healed extraction site” will be a surgical wound that presents as normal clinical dental ridge architecture with pink gingival tissue and without classic granulation tissue, erythema, or edema.
For subcutaneous injection buccal or labial to extraction sites, meperidine is delivered in a standard insulin syringe pre-loaded with 40 mg meperidine in preservative-free solution (available as 1 cc (100 mg) ampules or 1 cc (100 mg) multidose vials). […] Consequently, early on, the use of meperidine for oral surgery was standardized as preservative-free and limited to low doses of 5-20 mg per extraction site with a maximum of 120 mg for any one individual. […] The surgical procedure also involves the concurrent use of intravenous barbituates (hexibarbitol), 0.2 mg atropine, 2 mg dexarnethasone, and concurrent use of 100% oxygen. Nitrous oxide, 20-40%, may be used intermittently during the case to assist the phobic dental patient through the procedure. Additionally each patient is encouraged to take orally 2000 units of vitamin C (adult dose) the day before surgery and 2000 units per day for 5 days postoperatively. […] (A thiophene local anesthetic has been used on rare occasions.)
The infiltration process usually includes 5-15 mg in the dental sulcus with 2-3 mg infused in the attached gingiva. No periodontal ligament or intraosseous injection of meperidine is used.

[1] = healed extraction site, injection during surgery, five year period

## Nc1ccccc1 [aminobenzene]
Four impacted third molars
  blood loss per case: 70-150 cc

## CCOC(=O)C1(c2ccccc2)CCN(C)CC1 [meperidine]
3-4 days post surgery
  cases presenting with pink surgical site tissue including the mucoperiostial flap: 60-80%
10 months, April 2001 through February 2002, prophylactic antibiotics not always used
  post-operative bleeding or wound management problems: No post-operative bleeding or wound management problems developed
Before the dry socket can occur
  patients healed before day 5 postoperatively: 80%
During surgery
  time after injection at which rapid clotting is seen: three
  time for extraction socket to form a complete clot with no further bleeding: 2 to 5 min
Four impacted third molars
  blood loss per case, rarely went over: ≤ 20 cc
  blood loss per case: 2-10 cc
[1]
  patients in whom healing occurred in 3-4 days: 80%
  patients in whom healing occurred in 5-10 days: 5%
  patients in whom healing occurred in 1 day: 15%
human, in vivo
  intraoperatively cardiac monitored arrythmias: disappeared
  laryngiospasms requiring muscle paralyzing agents: not experienced
  paresthesia: can occur
Immediate postoperative, infiltration
  clinical numbness: without any marked clinical numbness
In 5 years
  post-operative infections: no post-operative infections
  trismus or temeromandibular joint dysfunction requiring physical therapy: no cases
Infiltrated subcutaneously buccal or labial to extraction site
  relief of oral surgical pain from extractions: clinically relieve oral surgical pain
Over 5 years
  dry sockets: disappeared from the practice
Patient with a factor deficiency disease
  time after suturing until clotting satisfactory for discharge: 15 min
Solution containing a preservative, subcutaneous injection at extraction sites
  tissue reaction observed clinically: excessive facial edema and tissue necrosis
Total body dose under 120 mg
  nausea: rare
